For 48 molecules, IC50 results are on record in patent publication US20230339851A1, “CXCR6 SULFONAMIDE COMPOUNDS” (CHEMOCENTRYX, INC., priority 2022, published 2023).

Bounds are passed on as bounds.

A word on the IC50: it is the concentration that gives 50% inhibition.

The target of this assay is T1, human CXCR6 (Homo sapiens, UniProt O00574).
T1 construct: expressed in transfected cells
T1 sequence (O00574 whole entry): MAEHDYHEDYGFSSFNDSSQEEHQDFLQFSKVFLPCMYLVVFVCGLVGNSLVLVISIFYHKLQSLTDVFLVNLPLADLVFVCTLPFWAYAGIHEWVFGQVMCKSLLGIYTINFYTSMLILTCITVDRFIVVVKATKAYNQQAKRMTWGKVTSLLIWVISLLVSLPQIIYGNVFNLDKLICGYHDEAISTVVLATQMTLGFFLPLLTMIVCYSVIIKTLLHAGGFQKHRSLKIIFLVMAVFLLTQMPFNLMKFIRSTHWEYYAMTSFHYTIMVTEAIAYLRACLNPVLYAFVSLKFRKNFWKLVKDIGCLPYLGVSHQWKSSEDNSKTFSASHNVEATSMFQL
In words: Radioligand Binding Assay (125I-CXCL16 displacement). To be noted: L1.2 cells stably transfected with human CXCR6 cDNA, 0.1 nM 125I-CXCL16, 4° C., three-hour incubation; read-out: Potency (IC50). As to the method:
L1.2 cells stably transfected with human CXCR6 cDNA ([…]) were incubated at 4° C. in HBSS containing 0.1 % BSA and 0.1 nM of ^125I-CXCL16 plus various concentrations of Compound. Following a three-hour incubation period, cells were aspirated onto polyethyleneimine-treated GF/B glass fiber filters (PerkinElmer, Waltham, MA) with a cell harvester (Tomtec, Hamden, CT) and washed twice with washing buffer (25 mM Hepes, 500 mM NaCl, 1 mM CaCI2, 5 mM MgCI2, pH 7.1). Fifty µl of MicroScint-20 (PerkinElmer, Waltham, MA) was added to each well of the filters, and radioactive emissions (cpm) were measured on a Packard TopCount Scintillation counter (PerkinElmer, Waltham, MA). IC50 values were calculated with GraphPad Prism using 3 parameter nonlinear regression. […]
For the molecule `CCOc1cc(NC(=O)[C@@H](CO)c2ccccc2)ccc1S(=O)(=O)Nc1cccc(OC)c1C` [Example 1.045], the concentration for half-maximal inhibition (IC50) lay in the range of 2000 to 20000 nM.
To `CCOc1cc(NC(=O)C2CC3C=CC2O3)ccc1S(=O)(=O)Nc1cccc(OC(F)(F)F)c1` (stereo not drawn) [Example 1.046] belongs 200 to 750 nM; to `CCOc1cc(NC(=O)C(CCO)c2ccccc2)ccc1S(=O)(=O)Nc1cccc(OC(F)(F)F)c1` (stereo not drawn) [Example 1.047], not above 200 nM.
With `Cc1cc(NC(=O)c2cncn2C)ccc1S(=O)(=O)Nc1cccc(C(F)(F)F)c1` [Example 1.048] the figure was 2000 to 20000 nM.
With `COc1cc(NC(=O)[C@@H]2CCCC[C@H]2O)ccc1S(=O)(=O)Nc1cccc(OC(F)(F)F)c1` [Example 1.049] the figure was 750 to 2000 nM; with `CCOc1cc(NC(=O)[C@@H](CO)C(C)C)ccc1S(=O)(=O)Nc1ccc2c(c1)OC(F)(F)O2` [Example 1.050], 200 to 750 nM.
Consider `COc1cc(NC(=O)[C@H]2CC[C@H](OC)CC2)ccc1S(=O)(=O)Nc1cccc(C(F)(F)F)c1` [Example 1.051], for which the concentration for half-maximal inhibition (IC50) was 2000 to 20000 nM.
With `CCOc1cc(NC(=O)CC(C)(O)CC)ccc1S(=O)(=O)Nc1cccc(OC(F)(F)F)c1` (stereo not drawn) [Example 1.052] the figure was 200 to 750 nM; with `CCOc1cc(NC(=O)[C@@H](CO)C2CC2)ccc1S(=O)(=O)Nc1cccc(OC(F)(F)F)c1` [Example 1.053], not above 200 nM.
As for `CCOc1cc(NC(=O)[C@@H](CO)C(C)C)ccc1S(=O)(=O)Nc1cccc(Cl)c1Cl` [Example 1.054], the IC50 lay in the range of 200 to 750 nM.
With `COc1cc(NC(=O)c2ccn[nH]2)ccc1S(=O)(=O)Nc1cccc(C(F)(F)F)c1` [Example 1.055] the figure was 750 to 2000 nM; with `CCc1cc(NC(=O)C2CCOCC2)ccc1S(=O)(=O)Nc1cccc(OC(F)(F)F)c1` [Example 1.056], not above 200 nM.
With `CCOc1cc(NC(=O)[C@@H](CO)C(C)C)ccc1S(=O)(=O)Nc1ccc(C)c(C(C)C)c1` [Example 1.057], the IC50 was not above 200 nM.
To `CCOc1cc(NC(=O)C2CCOC2)ccc1S(=O)(=O)Nc1cccc(OC(F)(F)F)c1` (stereo not drawn) [Example 1.058] belongs 200 to 750 nM; to `CCc1cc(NC(=O)[C@@H](O)C(C)C)ccc1S(=O)(=O)Nc1cccc(OC(F)(F)F)c1` [Example 1.059], not above 200 nM; to `CCOc1cc(NC(=O)CC(O)c2ccnn2C)ccc1S(=O)(=O)Nc1cccc(OC(F)(F)F)c1` (stereo not drawn) [Example 1.060], 750 to 2000 nM.
With `CCOc1cc(NC(=O)C2CC3CCC2O3)ccc1S(=O)(=O)Nc1cccc(OC(F)(F)F)c1` (stereo not drawn) [Example 1.061] the figure was not above 200 nM; with `CCOc1cc(NC(=O)[C@@H](CO)C(C)C)ccc1S(=O)(=O)Nc1cccc(C(F)(F)F)c1` [Example 1.062], not above 200 nM.
As for `CCOc1cc(NC(=O)C(C)c2ccccc2)ccc1S(=O)(=O)Nc1cccc(OC(F)(F)F)c1` (stereo not drawn) [Example 1.064], the half-inhibitory concentration (IC50) is not above 200 nM.
As to `CCOc1cc(NC(=O)[C@@H](CO)C(C)C)ccc1S(=O)(=O)Nc1cccc(OC(F)F)c1` [Example 1.066], the IC50 was not above 200 nM.
To `Cc1cc(NC(=O)c2ccno2)ccc1S(=O)(=O)Nc1cccc(C(F)(F)F)c1` [Example 1.067] belongs 200 to 750 nM; to `CCOc1cc(NC(=O)c2ccnn2C)ccc1S(=O)(=O)Nc1cccc(C(F)(F)F)c1` [Example 1.068], not above 200 nM; to `COc1cc(NC(=O)CC2CCCC2)ccc1S(=O)(=O)Nc1cccc(C(F)(F)F)c1` [Example 1.069], 200 to 750 nM.
With `Cc1cc(NC(=O)c2ccccc2F)ccc1S(=O)(=O)Nc1cccc(C(F)(F)F)c1` [Example 1.070] the figure was 2000 to 20000 nM; with `CCCc1cc(NC(=O)[C@@H](O)C(C)C)ccc1S(=O)(=O)Nc1cccc(OC(F)(F)F)c1` [Example 1.071], not above 200 nM.
To `CCOc1cc(NC(=O)C(C)C(O)C2CCOCC2)ccc1S(=O)(=O)Nc1cccc(OC(F)(F)F)c1` (stereo not drawn) [Example 1.072] belongs 200 to 750 nM.
For the molecule `CCOc1cc(NC(=O)c2ccccc2)ccc1S(=O)(=O)Nc1cccc(OC(F)(F)F)c1` [Example 1.073], the IC50 was not above 200 nM.
To `CCOc1cc(NC(=O)[C@@H](O)C(C)C)ccc1S(=O)(=O)Nc1cccc(OC(C)C)c1` [Example 1.074] belongs 200 to 750 nM; to `CCOc1cc(NC(=O)[C@@H](O)C(C)C)ccc1S(=O)(=O)Nc1cccc(C(F)(F)F)c1F` [Example 1.075], 2000 to 20000 nM.
As to `CCOc1cc(NC(=O)c2ccnc(OC)c2)ccc1S(=O)(=O)Nc1cccc(OC(F)(F)F)c1` [Example 1.076], the IC50 fell in the range of 200 to 750 nM.
Turning to `COc1cc(NC(=O)C2CC3C=CC2C3)ccc1S(=O)(=O)Nc1cccc(C(F)(F)F)c1` (stereo not drawn) [Example 1.077], the IC50 fell in the range of 2000 to 20000 nM.
`CC(C)[C@H](O)C(=O)Nc1ccc(S(=O)(=O)Nc2cccc(OC(F)(F)F)c2)c(Cl)c1` [Example 1.078]: the IC50 is not above 200 nM.
For the molecule `Cc1cc(NC(=O)[C@@H](CO)C2CC2)ccc1S(=O)(=O)Nc1cccc(OC(F)(F)F)c1` [Example 1.079], the concentration for half-maximal inhibition (IC50) is not above 200 nM.
As to `CCOc1cc(NC(=O)[C@@H](CO)c2ccccc2)ccc1S(=O)(=O)Nc1cccc(C2CC2)c1` [Example 1.080], the concentration for half-maximal inhibition (IC50) is not above 200 nM.
As to `CCOc1cc(NC(=O)C2CCC(=O)N2C)ccc1S(=O)(=O)Nc1cccc(OC(F)(F)F)c1` (stereo not drawn) [Example 1.081], the IC50 is 750 to 2000 nM.
On to `CCOc1cc(NC(=O)[C@@H](CO)C(C)C)ccc1S(=O)(=O)Nc1cccc(C2CC2)c1` [Example 1.082], for which the IC50 is not above 200 nM.
To `CCOc1cc(NC(=O)C2(O)CCCCC2)ccc1S(=O)(=O)Nc1cccc(OC(F)(F)F)c1` [Example 1.083] belongs 750 to 2000 nM; to `CCOc1cc(NC(=O)[C@@H](O)C(C)C)ccc1S(=O)(=O)Nc1ccc(F)c(C(F)(F)F)c1` [Example 1.084], not above 200 nM; to `CC(C)[C@H](CO)C(=O)Nc1ccc(S(=O)(=O)Nc2cccc(OC(F)(F)F)c2)c(Cl)c1` [Example 1.085], not above 200 nM.
With `CCOc1cc(NC(=O)[C@@H](N)c2ccccc2)ccc1S(=O)(=O)Nc1cccc(OC(F)(F)F)c1` [Example 1.086] the figure was not above 200 nM.
To `CCOc1cc(NC(=O)[C@@H](O)C(C)C)ccc1S(=O)(=O)Nc1cccc(C(F)(F)F)c1` [Example 1.088] belongs not above 200 nM.
Regarding `CCOc1cc(NC(=O)[C@@H](NC(=O)C(F)(F)F)C(C)CC)ccc1S(=O)(=O)Nc1cccc(OC(F)(F)F)c1` (stereo partly drawn) [Example 1.089], the IC50 was not above 200 nM.
On to `COc1cc(NC(=O)C2=CCCCC2)ccc1S(=O)(=O)Nc1cccc(OC(F)(F)F)c1` [Example 1.090], for which the IC50 was 750 to 2000 nM.
Consider `CCOc1cc(NC(=O)C(O)c2ccc3c(c2)OCO3)ccc1S(=O)(=O)Nc1cccc(OC(F)(F)F)c1` (stereo not drawn) [Example 1.091], for which the IC50 fell in the range of 200 to 750 nM.
With `CCOc1cc(NC(=O)C(CO)C2CCOCC2)ccc1S(=O)(=O)Nc1cccc(OC(F)(F)F)c1` (stereo not drawn) [Example 1.092] the figure was 200 to 750 nM.
Turning to `Cc1cc(NC(=O)c2ccnnc2)ccc1S(=O)(=O)Nc1cccc(C(F)(F)F)c1` [Example 1.093], the concentration for half-maximal inhibition (IC50) was in the range of 750 to 2000 nM.
To `CCOc1cc(NC(=O)C(O)C2CCCOC2)ccc1S(=O)(=O)Nc1cccc(OC(F)(F)F)c1` (stereo not drawn) [Example 1.094] belongs not above 200 nM.
With `CCOc1cc(NC(=O)C(C)(O)c2ccccc2)ccc1S(=O)(=O)Nc1cccc(OC(F)(F)F)c1` (stereo not drawn) [Example 1.095], the 50% inhibitory concentration (IC50) was not above 200 nM.
